Experimental data reported in patent US10975101B2, “Ultra-potent vinca alkaloids: added molecular complexity further disrupts the tublin dimer-dimer interface” (priority 2016, dated 2021).
pIC50: −log10 of the molar value. Where “and” joins values, the source holds several entries; their conditions need not be identical. Equal values may be shown once. Read-outs that look alike come from different tables or passages of the source.

Assays:
tubulin = assay: BODIPY-vinblastine/tubulin competitive displacement assay; type: binding; details: tubulin 0.91 μM, BODIPY-VBL 1.8 μM, vinblastine analogue 18 μM, 37° C., average of 4 measurements ± SD
Protocol: As a consequence, the commercially available BODIPY-vinblastine fluorescent probe was used to assess tubulin binding and develop its use in a direct competitive binding assay.^15 [(a) Jiang et al., Cancer Res. 1998, 58, 5389; (b) Zhang et al., PloS one 2009, 4, e4881; (c) Rai et al., PloS one 2012, 7, e44311 and (d) Rashid et al., Biochemistry 2015, 54, 2149.]
In carrying out this study, tubulin (0.1 mg/mL, 0.91 μM) was incubated with BODIPY-vinblastine (BODIPY-VBL, 1.8 μM) and a vinblastine analogue (18 μM) at 37° C. in PEM buffer containing 850 μM GTP. The BODIPY-VBL fluorescence intensity (FI) (ex: 480 nm, em: 514 nm) of 100 μL aliquots from each incubation were measured in a fluorescence micro-plate reader at 37° C. Control studies were performed with BODIPY-VBL (control 1) in the absence of a competitive ligand (maximum FI enhancement due to tubulin binding) and (control 2) in the absence of tubulin (no FI enhancement due to tubulin binding). % BODIPY-VBL displacement was calculated by the formula (control 2 FI−experiment FI)/(control 2 FI−control 1 FI)×100. Reported values are the average 4 measurements±the standard deviation.
100 μL of 1 mg/mL tubulin in PEM and 25 μL of 72 μM BODIPY-VBL in DMSO were added to 850 μL of buffer (PEM+1 mM GTP). The solution was incubated at 37° C. for 15 minutes, after which 25 μL of 720 μM competitive ligand in DMSO was added. The solution was incubated for an additional 60 minutes at 37° C., after which 100 μL aliquots of each incubation were transferred into the wells of a 96-well plate (warmed to 37° C. in the plate reader). The BODIPY-vinblastine fluorescence intensity was measured (Ex 480 nm, Em 514 nm, Cutoff 495 nm) at 37° C. Control measurements were performed with BODIPY-VBL (control 1) in the absence of a competitive ligand (maximum FI enhancement due to tubulin binding) and (control 2) in the absence of tubulin (no FI enhancement due to tubulin binding). % BODIPY-VBL displacement was calculated by the formula (Control 2 FI−Experiment FI)/(Control 2 FI−Control 1 FI)×100. PEM: 80 mM PIPES-K pH 6.8, 2 mM MgSO4, 0.5 mM EGTA pH 6.8.

[1] = tested on: HCT116/VM46 (a vinblastine-resistant strain of HCT116) cells; details: previously reported (footnote a, Barker et al. 2013) or background art table, cited from earlier work
[2] = tested on: L1210 (mouse lymphocytic leukemia) cells; assay: Cell growth inhibition assay, L1210; type: cell-based; details: 72 hours incubation, phosphatase assay
Protocol: (§1) Compounds were tested for their cell growth inhibition of L1210 (ATCC no. CCL-219, mouse lymphocytic leukemia) cells, HCT116 (ATCC no. CCL-247, human colorectal carcinoma) cells, and HCT116/VM46 (a vinblastine-resistant strain of HCT116) cells in culture. A population of cells (>1×10^6 cells/mL as determined with a hemocytometer) was diluted with an appropriate amount of Dulbecco's Modified Eagle Medium (DMEM, Gibco) containing 10% fetal bovine serum (FBS, Gibco) to a final concentration of 30000 cells/mL.
(§2) To each well of a 96-well plate (Corning Costar), 100 μL of the cell media solution was added with a multichannel pipet. The cultures were incubated at 37° C. in an atmosphere of 5% CO2 and 95% humidified air for 24 hours. The test compounds were added to the plate as follows: test substances were diluted in DMSO to a concentration of 1 mM and 10-fold serial dilutions were performed on a separate 96-well plate. Fresh culture medium (100 μL) was added to each well of cells to constitute 200 μL of medium per well followed by 2 μL of each test agent. Compounds were tested in duplicate (n=2-18 times) at six concentrations between 0-1000 nM or 0-10000 nM. Following addition, cultures were incubated for an additional 72 hours.
(§3) A phosphatase assay was used to establish the IC50 values as follows: the media in each cell was removed and 100 μL of phosphatase solution (100 mg phosphatase substrate in 30 mL of 0.1 M NaOAc, pH 5.5, 0.1% Triton X-100 buffer) was added to each well. The plates were incubated at 37° C. for either 5 minutes (L1210) or 15 minutes (HCT116 and HCT116/VM46). After the given incubation time, 50 μL of 0.1 N NaOH was added to each well and the absorption at 405 nm was determined using a 96 well plate reader. As the absorption is directly proportional to the number of living cells, the IC50 values were calculated and the reported values represent of the average of 4-36 determinations (SD±10%).

[3] = tested on: HCT116 (human colorectal carcinoma) cells; assay: cells; type: cell-based; details: for pIC50: 72 hours incubation, phosphatase assay, read-out: IC50, HCT116; for IC50: listed beside % displacement in second TABLE 5, read-out: IC50 (nM, HCT116)
Protocol: as §1, §2, §3

[4] = tested on: HCT116/VM46 (a vinblastine-resistant strain of HCT116) cells; assay: Cell growth inhibition assay, HCT116/VM46; type: cell-based, human; details: for pIC50: 72 hours incubation, phosphatase assay, Pgp-overexpressing resistant line; for increase in potency relative to vinblastine, HCT116/VM46: resistant line
Protocol: as §1, §2, §3

[5] = tested on: vinblastine sensitive tumor cell lines (L1210 and HCT116); assay: Cell growth inhibition, vinblastine-sensitive lines stated together; type: cell-based; details: cell growth inhibition; for increase in potency relative to vinblastine: vinblastine-sensitive lines
Protocol: as §1, §2, §3

[6] = tested on: L1210 (mouse lymphocytic leukemia) cells; details: previously reported in Barker et al., ACS Med. Chem. Lett. 2013, 4, 985; cited from earlier work
[7] = tested on: HCT116 (human colorectal carcinoma) cells; details: previously reported (footnote a, Barker et al. 2013) or background art table, cited from earlier work

| SMILES | % displacement of BODIPY-vinblastine bound to tubulin (tubulin) | pIC50 [1] | pIC50 [2] | pIC50 [3] | IC50 [3] | pIC50 [4] | increase in potency relative to vinblastine, HCT116/VM46 [4] | more potent than the C20′ urea 9 [5] | increase in potency relative to vinblastine [5] | pIC50 [6] | pIC50 [7] | also measured |
| --- | --- | --- | --- | --- | --- | --- | --- | --- | --- | --- | --- | --- |
| CC[C@]1(O)C[C@@H]2CN(CCc3c([nH]c4ccccc34)[C@@](C(=O)OC)(c3cc4c(cc3OC)N(C)[C@H]3[C@@](O)(C(=O)OC)[C@H](OC(C)=O)[C@]5(CC)C=CCN6CC[C@]43[C@@H]65)C2)C1 [Compound 1, Vinblastine, reference compound] | 31 ± 9% | 6.22 |  |  |  |  |  |  |  |  |  | % displacement of BODIPY-vinblastine bound to tubulin (tubulin; listed as vinblastine): 31% |
| CC[C@]1(NC(=O)N2Cc3ccc(NC(=O)c4cnccn4)cc3C2)C[C@H]2CN(CCc3c([nH]c4ccccc34)[C@@](C(=O)OC)(c3cc4c(cc3OC)N(C)[C@H]3[C@@](O)(C(=O)OC)[C@H](OC(C)=O)[C@]5(CC)C=CCN6CC[C@]43[C@@H]65)C2)C1 [Compound 60] | 100% and 104 ± 12% |  | 10.23 | 10.12 | 0.07 nM | 9.08 | 700 fold | 10 fold | 100 fold |  |  |  |
| CC[C@]1(NC(=O)N2CCCC2)C[C@H]2CN(CCc3c([nH]c4ccccc34)[C@@](C(=O)OC)(c3cc4c(cc3OC)N(C)[C@H]3[C@@](O)(C(=O)OC)[C@H](OC(C)=O)[C@]5(CC)C=CCN6CC[C@]43[C@@H]65)C2)C1 [Compound 8] |  | 7.30 |  |  |  |  |  |  |  | 9.15 | 9.14 | pIC50 ([7]; listed as drawing 14): 9.15 |
| CC[C@]1(NC(=O)N2Cc3ccc(NC(=O)c4ccncn4)cc3C2)C[C@H]2CN(CCc3c([nH]c4ccccc34)[C@@](C(=O)OC)(c3cc4c(cc3OC)N(C)[C@H]3[C@@](O)(C(=O)OC)[C@H](OC(C)=O)[C@]5(CC)C=CCN6CC[C@]43[C@@H]65)C2)C1 [Compound 58] | 100% and 105 ± 5% |  | 10.21 | 10.13 | 0.07 nM | 9.06 | 700 fold | 10 fold | 100 fold |  |  |  |
| CC[C@]1(NC(=O)N2Cc3ccccc3C2)C[C@H]2CN(CCc3c([nH]c4ccccc34)[C@@](C(=O)OC)(c3cc4c(cc3OC)N(C)[C@H]3[C@@](O)(C(=O)OC)[C@H](OC(C)=O)[C@]5(CC)C=CCN6CC[C@]43[C@@H]65)C2)C1 [Compound 9] |  | 8.12 |  |  |  |  |  |  |  | 9.29 | 9.22 | pIC50 ([7]; listed as drawing 15): 9.30; pIC50 ([1]; listed as drawing 15): 8.40 |
| CC[C@]1(O)C[C@H]2CN(CCc3c([nH]c4ccc(F)cc34)[C@@](C(=O)OC)(c3cc4c(cc3OC)N(C)[C@H]3[C@@](O)(C(=O)OC)[C@H](OC(C)=O)[C@]5(CC)C=CCN6CC[C@]43[C@@H]65)C2)C1 [Compound 71, 10′-fluorovinblastine, reference compound] | 48 ± 7% |  |  |  | 0.8 nM |  |  |  | roughly 10 fold |  |  |  |
| CC[C@]1(NC(=O)N2Cc3ccc(NC(=O)c4cccnn4)cc3C2)C[C@H]2CN(CCc3c([nH]c4ccccc34)[C@@](C(=O)OC)(c3cc4c(cc3OC)N(C)[C@H]3[C@@](O)(C(=O)OC)[C@H](OC(C)=O)[C@]5(CC)C=CCN6CC[C@]43[C@@H]65)C2)C1 [Compound 61] | 100% and 101 ± 4% |  | 10.23 | 10.17 | 0.07 nM | 9.06 | 700 fold | 10 fold | 100 fold |  |  |  |
| CC[C@]1(NC(=O)N2Cc3ccc(OC)cc3C2)C[C@H]2CN(CCc3c([nH]c4ccccc34)[C@@](C(=O)OC)(c3cc4c(cc3OC)N(C)[C@H]3[C@@](O)(C(=O)OC)[C@H](OC(C)=O)[C@]5(CC)C=CCN6CC[C@]43[C@@H]65)C2)C1 [Compound 35] |  | 8.07 |  |  |  |  |  |  |  | 9.32 | 9.27 |  |
| CC[C@]1(NC(=O)N2CCCCC2)C[C@H]2CN(CCc3c([nH]c4ccccc34)[C@@](C(=O)OC)(c3cc4c(cc3OC)N(C)[C@H]3[C@@](O)(C(=O)OC)[C@H](OC(C)=O)[C@]5(CC)C=CCN6CC[C@]43[C@@H]65)C2)C1 [Compound 23] |  | 7.30 |  |  |  |  |  |  |  | 8.26 | 8.41 |  |
